Results: US4689326A, “Process for controlling hyperlipidemia” (Research Corporation, priority 1985, dated 1987)

What was measured:
serum triglycerides = assay: Testing of Normal Mice: serum triglycerides (BioDynamics kit), Example 7; type: in vivo, CF1 male mice; conditions: Mus musculus, 384 h; 20 mg/kg/day ip, day 16, ± SD
Protocol: Suspensions of Compounds Nos. 1-9 were prepared wherein the compounds were suspended in an aqueous 1% carboxymethylcelluose solution, homogenized and administered to CF1 male mice, each weighing approximately 25 grams, intraperitoneally on a daily basis for 16 days. The dosage was, with the exception of one compound, 20 milligrams of the active compound per kilogram of mouse weight per day. On days 9 and 16 blood was obtained by tail vein bleeding. The blood serum was separated by centrifugation for three minutes. Serum cholesterol levels were determined by a modification of the Liebermann-Burchard reaction. Serum was also collected on day 16 and the triglycerides content was determined by a commercial kit, BioDynamics/bnc Single Vile Colorimetric Method 348201. Each compound was tested on a group of six mice.
In addition to the above-described treated mice, untreated control groups of six mice were similarly tested on days 9 and 14 or 16 to determine their serum cholesterol and triglycerides blood levels. Table 5 reports the percent control, based on the serum cholesterol and serum triglyceride levels of the treated mice compared to the untreated controls. Table 5 also includes the standard deviation indicating the level of confidence of these numbers.
Example 7 was repeated substituting clofibrate, a compound used in the prior art to lower serum cholesterol and serum triglyceride levels. The clofibrate was administered as a suspension in an aqueous 1% solution of carboxymethylcellulose. However, unlike the compounds of the present invention which were administered at a dosage of 20 mg/kg day, ip, this compound was administered at the elevated concentration of 150 mg/kg day, ip.

[1] = target: T1, Acyl CoA Cholesterol Acyl (Mus musculus, UniProt O88908); assay: In vitro enzyme activity, liver homogenate: acyl CoA cholesterol acyl transferase; type: biochemical, CF1 male mouse; conditions: ± SD, N = 6, read-out: Percent Control, in vitro enzyme activity
T1 construct: 10% homogenates of CF1 male mouse liver; from tissue; host or cells: CF1 male mouse liver, 10% homogenate
T1 sequence (O88908 1-525): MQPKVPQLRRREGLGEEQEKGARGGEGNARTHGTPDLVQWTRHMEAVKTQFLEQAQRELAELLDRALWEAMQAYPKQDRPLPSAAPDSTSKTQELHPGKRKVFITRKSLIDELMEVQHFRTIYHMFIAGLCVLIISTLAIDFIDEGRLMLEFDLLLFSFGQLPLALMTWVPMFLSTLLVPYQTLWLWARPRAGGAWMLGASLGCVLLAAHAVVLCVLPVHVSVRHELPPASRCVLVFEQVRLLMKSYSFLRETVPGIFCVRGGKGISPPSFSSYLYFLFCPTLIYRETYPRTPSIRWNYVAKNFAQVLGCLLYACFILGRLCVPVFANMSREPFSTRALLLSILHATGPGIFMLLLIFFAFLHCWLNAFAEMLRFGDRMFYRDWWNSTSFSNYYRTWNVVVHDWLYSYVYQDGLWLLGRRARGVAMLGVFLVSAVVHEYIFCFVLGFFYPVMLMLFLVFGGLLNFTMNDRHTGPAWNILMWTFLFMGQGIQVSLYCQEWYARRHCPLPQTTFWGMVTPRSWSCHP
Protocol: (§1) In vitro enzymatic studies were undertaken using 10% homogenates of CF1 male mouse liver with […] of compound 3,4,5,6-dibenzohomopiperidine. In addition, in vivo enzymatic studies were performed, again using 10% liver homogenates (prepared in 0.25 M sucrose plus 0.001 M (ethylenedinitrilo)-tetraacetic acid, ph 7.25 from CF1 male mice obtained after administering 3,4,5,6-dibenzohomopiperidine for 16 days at a concentration ranging from 10 to 60 mg/kg/day, intraperitoneally.
(§2) The following enzyme activities were determined by following standard literature procedures: acetyl coenzyme synthetase; adenosine triphosphate dependent citrate lyase; mitochondrial citrate exchange; cholesterol/7 hydroxylase; 3-hydroxy-3-methyl-glutaryl coenzyme A reductase; acetyl coenzyme A carboxylase activity; fatty acid synthetase activity; sn-glycerol-3-phosphate acyl transferase activity; phosphatidate phosphohydrolase activity; cholesterol acyl transferase; and heparin activated hepatic lypoprotein lipase. Protein was determined for all enzyme assays by the Lowry et al. technique (J. Biol. Chem, 193, 265 (1951)).

[2] = target: T2, Hepatic Lipoprotein Lipase (Mus musculus, UniProt P27656); assay: In vitro enzyme activity, liver homogenate: hepatic lipoprotein lipase; type: biochemical, CF1 male mouse; conditions: ± SD, N = 6, read-out: Percent Control, in vitro enzyme activity
T2 construct: 10% homogenates of CF1 male mouse liver; from tissue; host or cells: CF1 male mouse liver, 10% homogenate
T2 sequence (P27656 22-510): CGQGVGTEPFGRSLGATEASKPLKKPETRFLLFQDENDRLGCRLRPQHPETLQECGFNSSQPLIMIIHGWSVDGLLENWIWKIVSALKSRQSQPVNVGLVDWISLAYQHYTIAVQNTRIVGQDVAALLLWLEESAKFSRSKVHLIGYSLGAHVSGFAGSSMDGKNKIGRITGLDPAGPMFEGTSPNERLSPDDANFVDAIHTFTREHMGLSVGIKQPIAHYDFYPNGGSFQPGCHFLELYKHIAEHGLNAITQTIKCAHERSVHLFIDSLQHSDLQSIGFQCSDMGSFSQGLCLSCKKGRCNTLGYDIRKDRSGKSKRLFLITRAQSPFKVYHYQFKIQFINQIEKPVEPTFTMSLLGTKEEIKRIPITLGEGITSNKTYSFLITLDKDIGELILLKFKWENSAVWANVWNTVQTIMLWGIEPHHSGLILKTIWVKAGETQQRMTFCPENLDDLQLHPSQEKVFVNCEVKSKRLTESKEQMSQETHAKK
Protocol: as §1, §2

Acetyl CoA Synthetase = assay: In vivo enzyme activity, liver of treated mice: acetyl CoA synthetase; parameters: species or system CF1 male mice; conditions: 16 days, ± SD
Protocol: as §1, §2

HMG CoA Reductase = assay: In vivo enzyme activity, liver of treated mice: HMG CoA reductase; parameters: species or system CF1 male mice; conditions: 16 days, ± SD
Protocol: as §1, §2

Feces = assay: Lipid Extraction Studies in Rats, Example 11: feces; type: in vivo, Sprague Dawley male rats; conditions: oral 20 mg/kg/day, fourteen days, ± SD
LDL = assay: Lipoprotein fractions in Rats, Example 11: LDL; type: in vivo, Sprague Dawley male rats; conditions: oral 20 mg/kg/day, fourteen days, ± SD
Protocol: A group of six Sprague Dawley male rats were treated with 20 mg/kg/day of 3,4,5,6-dibenzohomopiperidine. The treatment was applied orally. An equal number of Sprague Dawley male rats, having approximately the same weight, were utilized as an untreated control. At the end of fourteen days the control and treated rats were sacrificed. Blood was collected from the abdominal aorta and lipoprotein fractions were obtained by the method of Hatch and Lees [Adv. Lipid Rees., 6, 1 (1968)] and Havel et al. [J. Clin Invest., 34, 1345 (1955)]. Each of the fractions were analyzed for cholesterol, triglycerides, neutral lipids, phospholipids and protein levels.

Which results are given for `c1ccc2c(c1)CNCc1ccccc1-2` [Compound 3, 3,4,5,6-dibenzohomopiperidine]?
response vs control in vivo at 20 mg/kg (serum triglycerides): 49 ± 5%; remaining activity at 50 µM ([1]; 50 μM): 60 ± 6%; remaining activity at 100 µM ([1]; 100 μM): 59 ± 5%; remaining activity at 200 µM ([1]; 200 μM): 3 ± 1%; remaining activity at 50 µM ([2]; 50 μM): 90 ± 7%; remaining activity at 100 µM ([2]; 100 μM): 89 ± 6%; remaining activity at 200 µM ([2]; 200 μM): 72 ± 5%; Percent Control, in vivo enzyme activity (Acetyl CoA Synthetase; 10 mg/kg/day ip): 64 ± 6%; Percent Control, in vivo enzyme activity (Acetyl CoA Synthetase; 20 mg/kg/day ip): 95 ± 6%; Percent Control, in vivo enzyme activity (Acetyl CoA Synthetase; 40 mg/kg/day ip): 103 ± 8%; Percent Control, in vivo enzyme activity (Acetyl CoA Synthetase; 60 mg/kg/day ip): 81 ± 6%; Percent Control, in vivo enzyme activity (HMG CoA Reductase; 10 mg/kg/day ip): 123 ± 5%; Percent Control, in vivo enzyme activity (HMG CoA Reductase; 20 mg/kg/day ip): 133 ± 9%; Percent Control, in vivo enzyme activity (HMG CoA Reductase; 40 mg/kg/day ip): 146 ± 7%; Percent Control, in vivo enzyme activity (HMG CoA Reductase; 60 mg/kg/day ip): 124 ± 6%; Cholesterol, concentration as a function of control (Feces): 103 ± 7%; Mg Lipid Wt, concentration as a function of control (Feces): 102 ± 8%; Neutral Lipids, concentration as a function of control (Feces): 108 ± 9%; Phospholipids, concentration as a function of control (Feces): 108 ± 10%; Protein, concentration as a function of control (Feces): 133 ± 8%; Triglycerides, concentration as a function of control (Feces): 99 ± 7%; Cholesterol, concentration as a function of control (LDL): 82 ± 8%; Neutral Lipids, concentration as a function of control (LDL): 107 ± 9%; Phospholipids, concentration as a function of control (LDL): 94 ± 10%; Protein, concentration as a function of control (LDL): 108 ± 9%; Triglycerides, concentration as a function of control (LDL): 73 ± 6%
